Data published in publication PMC7806715, “Discovery of small molecules targeting the tandem tudor domain of the epigenetic factor UHRF1 using fragment-based ligand discovery” (Scientific Reports, 2021).
Positions count from the first letter of the chain named.

Legend:
[1] = target: T1, His6-TTD-PHD (aa 123–366) wild type vs. H3K9me3 peptide (Homo sapiens, UniProt Q96T88); assay: TR-FRET assay: His6-TTD-PHD wild type binding to H3K9me3 peptide; format: biochemical
T1 construct: made in house; host or cells: Rosetta (DE3) E. coli, pMCSG7
T1 sequence (Q96T88 123-366): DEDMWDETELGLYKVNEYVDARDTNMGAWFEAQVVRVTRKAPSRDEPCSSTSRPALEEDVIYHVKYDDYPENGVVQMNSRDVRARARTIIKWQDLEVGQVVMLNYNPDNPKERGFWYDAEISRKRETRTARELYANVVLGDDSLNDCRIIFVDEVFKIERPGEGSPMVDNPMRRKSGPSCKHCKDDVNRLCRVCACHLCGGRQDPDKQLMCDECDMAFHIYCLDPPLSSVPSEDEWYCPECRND
Experimental: To test this hypothesis, we generated two TTD-PHD mutants: (1) S298D, which mimics phosphorylation at Ser298 and (2) RR295/296AA, which prevents Arg295 and Arg296 of the TTD-PHD linker from contacting the Arg binding cavity of TTD. […] The fragment screen was carried out on low volume 384-well white plates (Corning 4512) and the assay was performed at room temperature. The TR-FRET reagent mix contained 200 nM of biotinylated-H3K9me3 peptide (Anaspec), 250 nM of His6-TTD, 25 nM of streptavidin-d2 (CisBio), and 1 × anti-6His-Tb cryptate Gold (Cisbio) in TR-FRET buffer (50 mM sodium phosphate, pH 7, 150 mM NaCl, 1 mM DTT, and 0.1% Triton-X-100). During the screen, 5 μl of TR-FRET reagent mix was dispensed into each well, and 100 nl of chemical fragments stock (10 mM in DMSO) was added to each well by pintool using Tecan Freedom Evo liquid handler to make the final compound concentration 196 μM. After 1 h of incubation, the fluorescent signals at 665 nm and 620 nm of each plate were measured by the Tecan Infinite M1000 plate reader (excitation 340 nm, 60 μs lag time, and 500 μs integration time) and the TR-FRET signal was calculated by the ratio of 665 nm/620 nm fluorescent signal. For the fragment screen, on seven of the library plates there were 32-wells of DMSO control, while there were 8-wells of DMSO control in the last plate. The TR-FRET assays for the interactions between His6-TTD-PHD and His6-UHRF1-FL binding to biotinylated-H3K9me3 (1-20) peptide were similar to the assay for His6-TTD. The only difference was that the final concentration of […] assay, while the final concentration of His6-UHRF1-FL was 200 nM and biotin-H3K9me3 peptide was 100 nM for the His6-UHRF1-FL TR-FRET assay. The buffer pH was 7.5 for the His6-TTD-PHD and His6-UHRF1-FL assays. The His6-TTD and His6-TTD-PHD proteins (30 μM) were treated with PKA (P2645, Sigma) at 0.5 U/μl at 30 °C for 1 h in the reaction buffer (50 mM Tris, pH 7.5, 10 mM MgCl2, 0.02% Triton-X-100, 1 mM ATP, 1 mM DTT). The untreated sample was incubated at 30 °C for 1 h in same buffer condition without the addition of PKA. […]

[2] = target: T2, TTD-PHD S298D mutant vs. H3K9me3 peptide (Homo sapiens, UniProt Q96T88, S298D); assay: TR-FRET assay: TTD-PHD S298D mutant binding to H3K9me3 peptide; format: biochemical; conditions: 2.5 mM 2,4-lutidine
T2 construct: made in house; host or cells: E. coli (host printed for TTD-PHD in general: Rosetta (DE3))
T2 sequence (Q96T88 123-366 S298D): T1 sequence (Q96T88 123-366) with S176D
Experimental: The fragment screen was carried out on low volume 384-well white plates (Corning 4512) and the assay was performed at room temperature. […] After 1 h of incubation, the fluorescent signals at 665 nm and 620 nm of each plate were measured by the Tecan Infinite M1000 plate reader (excitation 340 nm, 60 μs lag time, and 500 μs integration time) and the TR-FRET signal was calculated by the ratio of 665 nm/620 nm fluorescent signal. For the fragment screen, on seven of the library plates there were 32-wells of DMSO control, while there were 8-wells of DMSO control in the last plate. […] The only difference was that the final concentration of […] assay, while the final concentration of His6-UHRF1-FL was 200 nM and biotin-H3K9me3 peptide was 100 nM for the His6-UHRF1-FL TR-FRET assay. The buffer pH was 7.5 for the His6-TTD-PHD and His6-UHRF1-FL assays.

His6-TTD-PHD = target: T3, His6-TTD-PHD (Homo sapiens, UniProt Q96T88); assay: Intrinsic tryptophan fluorescence of His6-TTD-PHD; format: binding; conditions: 3.2 µM protein
T3 construct: made in house; host or cells: Rosetta (DE3) E. coli, pMCSG7
T3 sequence (Q96T88 123-366): T1 sequence (Q96T88 123-366)
Experimental: The untagged TTD was diluted to 30 µM by buffer (50 mM sodium phosphate, pH 7.5, 150 mM NaCl) with or without 60 µM of H3K9me3 peptide (1–20) (Anaspec). 10 µL of diluted TTD was added into 384-well flat bottom black plate (Greiner, Cat# 781086). […] The final concentration of TTD was 15 µM and the H3K9me3 peptide (if included) was 30 µM. The experiment was performed at room temperature. […] After compound addition, the intrinsic tryptophan fluorescence was analyzed by the Tecan Infinite M1000 plate reader (excitation 280 nm, emission 334 nm). […] Tryptophan fluorescence monitors 2 , 4 - lutidine binding to His 6 - TTD, His 6 - TTD - PHD, and C - FLAG - UHRF 1 - FL . 2 , 4 - Lutidine dose - dependently quenched the tryptophan fluorescence of TTD (purple circle), while only started to show quenching effect against His 6 - TTD - PHD at mM concentration (blue diamond) . 2 , 4 - Lutidine had no effect on the fluorescence of C - FLAG - UHRF 1 - FL and the control USP 7 - UBL 1 / 2 protein . n= 3 for each data point . (Note : the standard deviation error bars are included, but the error values are often extremely small in this assay) . […]

Cc1ccnc(C)c1 [2,4-lutidine]
inhibition of His6-TTD-PHD interaction with H3K9me3 peptide (in words) ([1]; dose-response, side by side with His6-TTD): only weakly inhibits | effect of PKA treatment of His6-TTD-PHD on inhibition of H3K9me3 peptide binding (in words) ([1]; protein treated with PKA and ATP 1 h at 30 °C): improves the ability | inhibition of binding to H3K9me3 peptide ([1]; wild type TTD-PHD, 2.5 mM 2,4-lutidine): 7.9% | inhibition of binding to H3K9me3 peptide [2]: 44.5% | quenching of His6-TTD-PHD tryptophan fluorescence (in words) (His6-TTD-PHD): only at close to mM concentrations
